Laboratory results as given in PubChem BioAssay (NCI).
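Results reflect a 48-hour exposure of cells in 96-well plates to compound at five concentrations. GI50 marks 50% less growth. TGI denotes the concentration required for complete inhibition of growth.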

What was measured:
Assay in all cases: DTP human tumour cell line panel, 48 h
MCF7 breast = tested on: MCF7 breast
HS 578T breast = tested on: HS 578T breast
NCI/ADR-RES ovarian = tested on: NCI/ADR-RES ovarian
NCI-H522 lung = tested on: NCI-H522 lung
OVCAR-8 ovarian = tested on: OVCAR-8 ovarian
A549 NSCLC = tested on: A549 NSCLC
HL-60(TB) leukemia = tested on: HL-60(TB) leukemia
U251 CNS = tested on: U251 CNS
IGROV1 ovarian = tested on: IGROV1 ovarian
SF-268 CNS = tested on: SF-268 CNS

| SMILES | GI50 (MCF7 breast) [µM] | TGI (MCF7 breast) [µM] | GI50 (HS 578T breast) [µM] | TGI (HS 578T breast) [µM] | GI50 (NCI/ADR-RES ovarian) [µM] | TGI (NCI/ADR-RES ovarian) [µM] | GI50 (NCI-H522 lung) [µM] | TGI (NCI-H522 lung) [µM] | GI50 (OVCAR-8 ovarian) [µM] | TGI (OVCAR-8 ovarian) [µM] | GI50 (A549 NSCLC) [µM] | TGI (A549 NSCLC) [µM] | GI50 (HL-60(TB) leukemia) [µM] | TGI (HL-60(TB) leukemia) [µM] | GI50 (U251 CNS) [µM] | TGI (U251 CNS) [µM] | GI50 (IGROV1 ovarian) [µM] | TGI (IGROV1 ovarian) [µM] | GI50 (SF-268 CNS) [µM] | TGI (SF-268 CNS) [µM] |
| --- | --- | --- | --- | --- | --- | --- | --- | --- | --- | --- | --- | --- | --- | --- | --- | --- | --- | --- | --- | --- |
| C[C@@H](CO)NC(=O)c1cc(-c2ccc(Cl)cc2)nn(-c2cnn(C)c2)c1=O | 25.7 | > 100 | 24.8 | > 100 | 16.7 | 71.9 | 14.4 | 35.7 | 26.3 | > 100 | 20.3 | 67.7 | 13.9 | 42.3 | 42.9 | > 100 | 20.2 | 82.1 | 25.6 | > 100 |
| Cc1c2c(c(C)c3c1[nH]c1ccccc13)CN(C)CC2 |  |  |  |  |  |  |  | 31.3 |  | 37.7 |  | > 100 |  | > 100 |  | 26 |  | > 100 |  | 47.6 |
| O=C1OC(=O)C2C3C=CC(C12)C1C2C=CC2C31 (configuration not stated) |  |  |  |  |  |  |  | > 100 |  | > 100 |  | > 100 |  | > 100 |  | > 100 |  | > 100 |  | > 100 |
| CCn1c2ccccc2c2c(-c3ccccc3)cc3c(c21)C(=O)N(c1ccccc1)C3=O |  |  |  |  |  |  |  | > 100 |  | > 100 |  | > 100 |  | > 100 |  | > 100 |  | > 100 |  | > 100 |
| NC(CSSCC(N)C(=O)O)C(=O)O (configuration not stated) | > 100 | > 100 | > 100 | > 100 | > 100 | > 100 |  |  | > 100 | > 100 | > 100 | > 100 | > 100 | > 100 | > 100 | > 100 | > 100 | > 100 | > 100 | > 100 |
| NC(=O)NC1C(C(=O)O)N(Cc2ccccc2)C(=O)N1Cc1ccccc1 (configuration not stated) |  |  |  |  |  |  |  | > 100 |  | > 100 |  | > 100 |  | > 100 |  | > 100 |  | > 100 |  | > 100 |
| C=Cn1c([N+](=O)[O-])cnc1/C=C/c1ccc(C(=O)OCCN2CCOCC2)cc1 |  | > 100 |  | > 100 |  | > 100 |  | > 100 |  | > 100 |  | > 100 |  |  |  | > 100 |  | > 100 |  | > 100 |
| CC1(C)Cc2c(Br)c(Br)c(Br)c(OCC(O)CN3CCN(c4ccccn4)CC3)c2O1 (configuration not stated) | 10.3 | 22.4 | 18.6 | 39.2 | 16.3 | 42.6 | 16.8 | 35.5 | 20.9 | 45.3 |  |  | 2.8 | 11.1 | 11.3 | 23.3 | 10.7 | 26 | 12.9 | 39.6 |
| CC(=O)c1ccc(NC(=O)COC(=O)c2cccc3c(=O)c4ccccc4[nH]c23)cc1 |  |  |  |  |  |  |  | > 100 |  | > 100 |  | > 100 |  | > 100 |  | 86.5 |  | > 100 |  | > 100 |
| Cc1nc2cc(Nc3ccccc3C(=O)O)ccc2s1 |  |  |  |  |  |  |  | > 100 |  | > 100 |  | > 100 |  | > 100 |  | > 100 |  | > 100 |  | > 100 |
| Cn1cc(C(=O)c2ccccc2)cc(C(=O)c2ccccc2)c1=O |  |  |  |  |  |  |  | > 100 |  | > 100 |  | > 100 |  | > 100 |  | > 100 |  | > 100 |  | > 100 |
| O=C(/C=C(\C(=O)c1cccs1)c1cccs1)c1ccc(C(=O)/C=C(\C(=O)c2cccs2)c2cccs2)cc1 |  | > 100 |  | > 100 |  | > 100 |  |  |  | > 100 |  | > 100 |  | > 100 |  | > 100 |  | > 100 |  | > 100 |
| CC1SC2(CCCCC2)N(NC(=O)c2[nH]c3ccc(Br)cc3c2-c2ccccc2)C1=O (configuration not stated) | 20.5 | > 100 | 70.7 | > 100 |  |  | 6.78 | > 100 | 17 | 53.8 | 15.7 | > 100 |  |  | 41.3 | > 100 | 4.02 | 28.4 | 75.6 | > 100 |
| O=C1CN(c2cccc(Cl)c2)C(=O)CN1NCNN1CC(=O)N(c2cccc(Cl)c2)CC1=O |  | > 100 |  | > 100 |  |  |  | > 100 |  | > 100 |  | > 100 |  | > 100 |  | > 100 |  | > 100 |  | > 100 |
| Cc1cc(S(=O)(=O)Nc2n[nH]c(N)n2)c(Cl)cc1Cl |  |  |  | > 10 |  | > 10 |  | > 10 |  | > 10 |  | > 10 |  | > 10 |  | > 10 |  | > 10 |  | > 10 |
| CN(CCC(=O)/C(=C\c1ccccc1)c1ccc(Cl)cc1)Cc1ccccc1 | 2.06 | 16.5 | 3.99 | 47.5 | 3.68 | > 100 | 1.69 | 3.19 | 3.32 | 14.8 | 12.8 | 31.9 | 5.95 | 34.5 | 1.9 | 4.35 |  |  | 2.76 | 10 |
| NC(Cc1ccc2nc3c4ccccc4c(=O)cc-3oc2c1)C(=O)O (configuration not stated) |  | 41.4 |  | > 100 |  | > 100 |  |  |  |  |  | > 100 |  | > 100 |  | > 100 |  | > 100 |  | > 100 |
| CC(=O)NC1=NC(=O)/C(=C/c2ccc(/C=C3/C(=O)N=C(NC(C)=O)N3C)cc2)N1C |  | > 100 |  |  |  | > 100 |  |  |  | > 100 |  | > 100 |  | > 100 |  | > 100 |  | > 100 |  | > 100 |
| CC1OC(CC(=O)O)CC2=C1C(=O)c1c(O)cccc1C2=O (configuration not stated) |  | 0.368 |  | 0.452 |  |  |  | < 0.0251 |  | 1.1 |  | 7.96 |  | 0.0582 |  | 2.38 |  | 0.721 |  | 1.33 |
| NC(=S)N1N=C2c3ccccc3CC[C@H]2[C@@H]1c1ccc(Cl)cc1 |  |  |  |  |  |  |  | 35.4 |  | > 100 |  | > 100 |  | 61.6 |  | > 100 |  | > 100 |  | > 100 |
